Source: PubChem BioAssay (NCI)
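Five compound concentrations were applied to cells in 96-well plates for 48 hours; endpoints were derived by simple linear interpolation of the resulting dose-response curve. At the TGI there is no net growth.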

Columns and labels:
Assay in all cases: growth of human tumour cells (NCI), 48 h
OVCAR-5 ovarian = system: OVCAR-5 ovarian
DMS 273 small cell lung = system: DMS 273 small cell lung
HCT-116 colon = system: HCT-116 colon
DLD-1 colon = system: DLD-1 colon
SNB-19 CNS = system: SNB-19 CNS
U251 CNS = system: U251 CNS
MALME-3M melanoma = system: MALME-3M melanoma
A498 renal = system: A498 renal
CCRF-CEM leukemia = system: CCRF-CEM leukemia
OVCAR-3 ovarian = system: OVCAR-3 ovarian
OVCAR-4 ovarian = system: OVCAR-4 ovarian
RPMI-8226 leukemia = system: RPMI-8226 leukemia
HOP-62 NSCLC = system: HOP-62 NSCLC
LXFL 529 NSCLC = system: LXFL 529 NSCLC
SW-620 colon = system: SW-620 colon
SF-268 CNS = system: SF-268 CNS
K-562 leukemia = system: K-562 leukemia
SF-295 CNS = system: SF-295 CNS
NCI-H23 lung = system: NCI-H23 lung
OVCAR-8 ovarian = system: OVCAR-8 ovarian
SF-539 CNS = system: SF-539 CNS
TK-10 renal = system: TK-10 renal
HOP-92 NSCLC = system: HOP-92 NSCLC
UO-31 renal = system: UO-31 renal
UACC-257 melanoma = system: UACC-257 melanoma
CAKI-1 renal = system: CAKI-1 renal
HCC-2998 colon = system: HCC-2998 colon
SK-MEL-28 melanoma = system: SK-MEL-28 melanoma
786-0 renal = system: 786-0 renal
KM12 colon = system: KM12 colon
DMS 114 small cell lung = system: DMS 114 small cell lung
NCI-H460 lung = system: NCI-H460 lung
MOLT-4 leukemia = system: MOLT-4 leukemia
M19-MEL melanoma = system: M19-MEL melanoma
HT29 colon = system: HT29 colon
HL-60(TB) leukemia = system: HL-60(TB) leukemia
KM20L2 colon = system: KM20L2 colon
SNB-78 CNS = system: SNB-78 CNS
HOP-18 NSCLC = system: HOP-18 NSCLC
SNB-75 CNS = system: SNB-75 CNS
UACC-62 melanoma = system: UACC-62 melanoma
COLO 205 colon = system: COLO 205 colon
NCI-H226 lung = system: NCI-H226 lung
RXF-631 renal = system: RXF-631 renal
M14 melanoma = system: M14 melanoma
SK-MEL-5 melanoma = system: SK-MEL-5 melanoma
A549 NSCLC = system: A549 NSCLC
ACHN renal = system: ACHN renal
SN12C renal = system: SN12C renal
HCT-15 colon = system: HCT-15 colon
IGROV1 ovarian = system: IGROV1 ovarian
EKVX NSCLC = system: EKVX NSCLC
SK-OV-3 ovarian = system: SK-OV-3 ovarian
XF 498 CNS = system: XF 498 CNS
LOX IMVI melanoma = system: LOX IMVI melanoma
SK-MEL-2 melanoma = system: SK-MEL-2 melanoma
RXF 393 renal = system: RXF 393 renal
NCI-H522 lung = system: NCI-H522 lung

Cc1cccc(Cl)c1NC(N)=S
TGI (OVCAR-5 ovarian): > 100 µM
TGI (DMS 273 small cell lung): > 100 µM
TGI (HCT-116 colon): 35.9 µM
TGI (DLD-1 colon): > 100 µM
TGI (SNB-19 CNS): > 100 µM
TGI (U251 CNS): 49.7 µM
TGI (MALME-3M melanoma): > 100 µM
TGI (A498 renal): > 100 µM
TGI (CCRF-CEM leukemia): > 100 µM
TGI (OVCAR-3 ovarian): 78.6 µM
TGI (OVCAR-4 ovarian): > 100 µM
TGI (RPMI-8226 leukemia): 58.8 µM
TGI (HOP-62 NSCLC): > 100 µM
TGI (LXFL 529 NSCLC): > 100 µM
TGI (SW-620 colon): 35.6 µM
TGI (SF-268 CNS): > 100 µM
TGI (K-562 leukemia): > 100 µM
TGI (SF-295 CNS): > 100 µM
TGI (NCI-H23 lung): > 100 µM
TGI (OVCAR-8 ovarian): 79.8 µM
TGI (SF-539 CNS): > 100 µM
TGI (TK-10 renal): > 100 µM
TGI (HOP-92 NSCLC): > 100 µM
TGI (UO-31 renal): > 100 µM
TGI (UACC-257 melanoma): > 100 µM
TGI (CAKI-1 renal): > 100 µM
TGI (HCC-2998 colon): > 100 µM
TGI (SK-MEL-28 melanoma): > 100 µM
TGI (786-0 renal): 48.6 µM
TGI (KM12 colon): > 100 µM
TGI (DMS 114 small cell lung): 82 µM
TGI (NCI-H460 lung): > 100 µM
TGI (MOLT-4 leukemia): > 100 µM
TGI (M19-MEL melanoma): > 100 µM
TGI (HT29 colon): > 100 µM
TGI (HL-60(TB) leukemia): > 100 µM
TGI (KM20L2 colon): > 100 µM
TGI (SNB-78 CNS): > 100 µM
TGI (HOP-18 NSCLC): 98.6 µM
TGI (SNB-75 CNS): > 100 µM
TGI (UACC-62 melanoma): > 100 µM
TGI (COLO 205 colon): > 100 µM
TGI (NCI-H226 lung): > 100 µM
TGI (RXF-631 renal): > 100 µM
TGI (M14 melanoma): > 100 µM
TGI (SK-MEL-5 melanoma): > 100 µM
TGI (A549 NSCLC): > 100 µM
TGI (ACHN renal): 82.5 µM
TGI (SN12C renal): > 100 µM
TGI (HCT-15 colon): 37.1 µM
TGI (IGROV1 ovarian): > 100 µM
TGI (EKVX NSCLC): > 100 µM
TGI (SK-OV-3 ovarian): > 100 µM

COc1ccc(C(=O)Nc2ccc(S(=O)(=O)NCC(=O)O)cc2)cc1
TGI (OVCAR-5 ovarian): > 100 µM
TGI (DMS 273 small cell lung): > 100 µM
TGI (DLD-1 colon): > 100 µM
TGI (SNB-19 CNS): > 100 µM
TGI (U251 CNS): > 100 µM
TGI (MALME-3M melanoma): > 100 µM
TGI (A498 renal): > 100 µM
TGI (CCRF-CEM leukemia): > 100 µM
TGI (OVCAR-3 ovarian): > 100 µM
TGI (XF 498 CNS): > 100 µM
TGI (OVCAR-4 ovarian): > 100 µM
TGI (LOX IMVI melanoma): > 100 µM
TGI (RPMI-8226 leukemia): > 100 µM
TGI (LXFL 529 NSCLC): > 100 µM
TGI (SW-620 colon): > 100 µM
TGI (SF-268 CNS): > 100 µM
TGI (K-562 leukemia): > 100 µM
TGI (SF-295 CNS): > 100 µM
TGI (NCI-H23 lung): > 100 µM
TGI (OVCAR-8 ovarian): > 100 µM
TGI (SK-MEL-2 melanoma): > 100 µM
TGI (SF-539 CNS): > 100 µM
TGI (TK-10 renal): > 100 µM
TGI (RXF 393 renal): > 100 µM
TGI (HOP-92 NSCLC): > 100 µM
TGI (NCI-H522 lung): > 100 µM
TGI (UO-31 renal): > 100 µM
TGI (UACC-257 melanoma): > 100 µM
TGI (CAKI-1 renal): > 100 µM
TGI (HCC-2998 colon): > 100 µM
TGI (SK-MEL-28 melanoma): > 100 µM
TGI (786-0 renal): > 100 µM
TGI (KM12 colon): > 100 µM
TGI (NCI-H460 lung): > 100 µM
TGI (MOLT-4 leukemia): > 100 µM
TGI (M19-MEL melanoma): > 100 µM
TGI (HT29 colon): > 100 µM
TGI (HL-60(TB) leukemia): > 100 µM
TGI (KM20L2 colon): > 100 µM
TGI (HOP-18 NSCLC): > 100 µM
TGI (SNB-75 CNS): > 100 µM
TGI (UACC-62 melanoma): > 100 µM
TGI (COLO 205 colon): > 100 µM
TGI (RXF-631 renal): > 100 µM
TGI (M14 melanoma): > 100 µM
TGI (SK-MEL-5 melanoma): > 100 µM
TGI (A549 NSCLC): > 100 µM
TGI (ACHN renal): > 100 µM
TGI (SN12C renal): > 100 µM
TGI (HCT-15 colon): > 100 µM
TGI (IGROV1 ovarian): > 100 µM
TGI (EKVX NSCLC): > 100 µM
TGI (SK-OV-3 ovarian): > 100 µM
